# Results published in article PMC10051798, “Thiosemicarbazide Derivatives Targeting Human TopoIIα and IDO-1 as Small-Molecule Drug Candidates for Breast Cancer Treatment” (International Journal of Molecular Sciences, 2023).
# Several values for one entry are separate records, joined by “and”; a condition that tells them apart may be missing. Identical values can stand only once.
# Experiments:
# [1] = molecular target: T1, BCRP in MCF-7 cells (Homo sapiens, UniProt Q9UNQ0); test: MDR transporter activity assay, BCRP in MCF-7; assay type: cell-based; details: MCF-7, 10 µg/mL, 24 h
# T1 construct: endogenous in cells; host or cells: MCF-7 and MDA-MB-231 cells
# T1 sequence (Q9UNQ0 1-655): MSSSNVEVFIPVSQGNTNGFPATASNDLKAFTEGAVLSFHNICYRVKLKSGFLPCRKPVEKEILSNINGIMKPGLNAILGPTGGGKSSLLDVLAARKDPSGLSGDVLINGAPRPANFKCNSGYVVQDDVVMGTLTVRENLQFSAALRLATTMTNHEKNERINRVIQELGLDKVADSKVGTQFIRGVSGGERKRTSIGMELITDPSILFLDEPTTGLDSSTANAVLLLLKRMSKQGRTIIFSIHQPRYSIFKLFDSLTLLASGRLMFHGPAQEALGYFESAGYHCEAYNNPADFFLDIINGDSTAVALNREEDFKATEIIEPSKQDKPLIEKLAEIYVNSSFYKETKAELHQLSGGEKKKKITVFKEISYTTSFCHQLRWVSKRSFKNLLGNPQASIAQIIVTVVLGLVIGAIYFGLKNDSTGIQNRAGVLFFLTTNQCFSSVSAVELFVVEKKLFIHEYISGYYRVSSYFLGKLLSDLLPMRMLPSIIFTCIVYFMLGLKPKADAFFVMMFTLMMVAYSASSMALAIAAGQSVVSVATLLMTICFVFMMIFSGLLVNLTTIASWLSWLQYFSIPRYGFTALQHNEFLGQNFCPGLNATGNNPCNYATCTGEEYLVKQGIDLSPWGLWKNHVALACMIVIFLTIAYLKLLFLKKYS
# Method: An MDR Assay kit (Abcam, Cambridge, UK) was used following the manufacturer’s instructions. MCF-7 and MDA-MB-231 cells were incubated with compounds 1–3 (10 μg/mL and 20 μg/mL). After 24 h of incubation, the test cells were washed twice with 5 mL of PBS by centrifugation at 1200 rpm for 10 min. The supernatants were discarded and the cells were counted using a Scepter 3.0 handheld automated cell counter (Milipore, Burlington, MA, USA). Then, each of the tested samples was divided into three parts and analyzed. Tomeasure the activity of MDR1, MRP1 and BCRP (tubes 1–12), 5 μL of verapamil (MDR1 inhibitor) was added into tubes 1–3, 5 μL of MK-571 (MRP1 inhibitor) was added into tubes 4–6, 5 μL of noviobiocin (BCRP inhibitor) was added into tubes 7–9 and 125 μL DMEM with 1 μL of DMSO was added into tubes 10–12. Then, the samples were incubated at 37 °C for five minutes. After this time, 125 μL of Efflux Green Detection Reagent was added into tubes 1–12 and the samples were incubated for 30 min at 37 °C. After 25 min of incubation, 5 μL of PI was added to each tube. Thereafter, the samples were centrifuged for 10 min at 1200 rpm. The supernatants were discarded and the cells were resuspended in 500 μL of PBS and run on the flow cytometer immediately. Measurements were conducted on a BD FACSCanto II flow cytometer using FACSDiva software (version 6.1.3, BD Biosciences, San Diego, CA, USA). […]
# [2] = system: MCF-7 cells; parameters: method as in PMID 36345785; details: MTT; cited from earlier work
# [3] = system: MDA-MB-231 cells; parameters: method as in PMID 36345785; details: MTT; cited from earlier work
# [4] = molecular target: T2, MDR1 (p-glycoprotein) in MDA-MB-231 cells (Homo sapiens, UniProt P08183); test: MDR transporter activity assay, MDR1 in MDA-MB-231; assay type: cell-based; details: 24 h
# T2 construct: endogenous in cells; host or cells: MCF-7 and MDA-MB-231 cells
# T2 sequence (P08183 whole entry): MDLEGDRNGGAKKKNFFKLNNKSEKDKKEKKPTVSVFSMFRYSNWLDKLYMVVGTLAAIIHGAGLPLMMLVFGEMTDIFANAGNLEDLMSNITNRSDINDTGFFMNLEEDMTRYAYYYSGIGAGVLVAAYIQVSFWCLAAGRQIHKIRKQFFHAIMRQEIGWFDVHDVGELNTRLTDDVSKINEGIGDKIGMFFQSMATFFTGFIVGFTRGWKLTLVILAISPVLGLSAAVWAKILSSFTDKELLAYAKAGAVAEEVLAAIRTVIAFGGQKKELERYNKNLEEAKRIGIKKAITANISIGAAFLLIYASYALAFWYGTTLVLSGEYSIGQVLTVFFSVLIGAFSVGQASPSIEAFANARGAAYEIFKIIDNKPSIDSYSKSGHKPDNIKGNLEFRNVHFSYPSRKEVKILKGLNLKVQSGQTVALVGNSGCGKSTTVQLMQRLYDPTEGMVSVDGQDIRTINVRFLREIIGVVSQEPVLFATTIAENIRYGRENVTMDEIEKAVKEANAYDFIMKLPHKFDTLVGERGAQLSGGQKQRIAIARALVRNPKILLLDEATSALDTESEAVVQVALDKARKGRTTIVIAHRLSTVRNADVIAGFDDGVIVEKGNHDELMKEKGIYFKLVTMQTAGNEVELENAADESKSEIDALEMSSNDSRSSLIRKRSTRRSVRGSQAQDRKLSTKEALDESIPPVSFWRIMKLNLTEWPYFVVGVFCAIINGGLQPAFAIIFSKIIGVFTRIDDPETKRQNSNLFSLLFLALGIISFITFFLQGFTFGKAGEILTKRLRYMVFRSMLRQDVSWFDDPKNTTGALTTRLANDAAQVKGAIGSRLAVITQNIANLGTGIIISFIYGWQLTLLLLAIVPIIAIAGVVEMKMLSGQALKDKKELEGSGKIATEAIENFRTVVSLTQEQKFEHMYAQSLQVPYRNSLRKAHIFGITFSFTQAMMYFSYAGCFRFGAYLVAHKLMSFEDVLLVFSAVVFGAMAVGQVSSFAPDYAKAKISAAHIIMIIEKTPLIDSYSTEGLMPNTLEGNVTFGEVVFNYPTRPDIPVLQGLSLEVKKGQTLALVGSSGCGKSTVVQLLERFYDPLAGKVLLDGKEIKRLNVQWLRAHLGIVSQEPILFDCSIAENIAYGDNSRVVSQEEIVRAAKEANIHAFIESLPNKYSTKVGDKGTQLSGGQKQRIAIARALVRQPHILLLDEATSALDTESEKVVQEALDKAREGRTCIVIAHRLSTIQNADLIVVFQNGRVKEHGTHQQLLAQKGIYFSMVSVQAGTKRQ
# Method: An MDR Assay kit (Abcam, Cambridge, UK) was used following the manufacturer’s instructions. MCF-7 and MDA-MB-231 cells were incubated with compounds 1–3 (10 μg/mL and 20 μg/mL). After 24 h of incubation, the test cells were washed twice with 5 mL of PBS by centrifugation at 1200 rpm for 10 min. The supernatants were discarded and the cells were counted using a Scepter 3.0 handheld automated cell counter (Milipore, Burlington, MA, USA). Then, each of the tested samples was divided into three parts and analyzed. Tomeasure the activity of MDR1, MRP1 and BCRP (tubes 1–12), 5 μL of verapamil (MDR1 inhibitor) was added into tubes 1–3, 5 μL of MK-571 (MRP1 inhibitor) was added into tubes 4–6, 5 μL of noviobiocin (BCRP inhibitor) was added into tubes 7–9 and 125 μL DMEM with 1 μL of DMSO was added into tubes 10–12. Then, the samples were incubated at 37 °C for five minutes. After this time, 125 μL of Efflux Green Detection Reagent was added into tubes 1–12 and the samples were incubated for 30 min at 37 °C. After 25 min of incubation, 5 μL of PI was added to each tube. Thereafter, the samples were centrifuged for 10 min at 1200 rpm. The supernatants were discarded and the cells were resuspended in 500 μL of PBS and run on the flow cytometer immediately. Measurements were conducted on a BD FACSCanto II flow cytometer using FACSDiva software (version 6.1.3, BD Biosciences, San Diego, CA, USA). […] The calculations followed these formulas:MAFMDR1= 100 × (FMDR1 − F0)/FMDR1 MAFMRP= 100 × (FMRP − F0)/FMRP MAFBCRP= 100 × (FBCRP − F0)/FBCRP
# • FMDR—MFI with MDR1 inhibitor (verapamil) • FMRP—MFI with MRP inhibitor (MK-571) • FBCRP—MFI with BCRP inhibitor (novobiocin) • F0—MFI without inhibitor
# The theoretical range of the MAF values is between 0 and 100.
# [5] = system: MCF-7 cells; test: Cell cycle analysis (PI flow cytometry), MCF-7; assay type: cell-based, human; details: 24 h
# Method: Cell cycle analyses of MCF-7 and MDA-MB-231 cells treated with compounds 1–3 and etoposide for 24 h were performed using a FACSCanto II flow cytometer (BD Bioscences Systems, San Diego, CA, USA). After incubation, breast cancer cells were trypsinized and fixed with cold ethanol (70%) and stored overnight at −20 °C. After removing ethanol, the cells were washed three times with PBS, treated with 50 μg/mL of DNase-free RNase A Solution (Promega, Madison, WI, USA) and stained with 100 μg/mL of PI. The results of measurements were analyzed using FCS Express 7 software (De Novo Software, Pasadena, CA, USA).
# [6] = system: MCF-10A cells; test: MTT viability assay, normal breast epithelial cells; assay type: cell-based, human; details: for IC50: Homo sapiens, MCF-10A, MTT, 24 h; for SIMCF-7 (selectivity index): IC50 MCF-10A/IC50 MCF-7; for SIMDA-MB-231 (selectivity index): IC50 MCF-10A/IC50 MDA-MB-231
# Method: Human breast cancer cells, i.e., MCF-7 (estrogen-dependent breast cancer cells) and MDA-MB-231 (estrogen-independent breast cancer cells), as well as normal human breast epithelial cells (MCF-10A) were purchased from the American Type Culture Collection (ATCC, Manassas, VA, USA). MCF-7 and MDA-MB-231 cells were cultured in DMEM (Sigma Aldrich, St. Louis, MO, USA) supplemented with 10% fetal bovine serum (FBS), penicillin (100 U/mL) and streptomycin (100 μg/mL). MCF-10A cells were cultured in Mammary Epithelial Cell Growth Medium supplemented with BPE, hEGF, insulin, hydrocortisone, GA-1000 (Lonza, Basel, Switzerland), 10% fetal bovine serum (FBS), penicillin (100 U/mL) and streptomycin (100 μg/mL). The cells were grown in T25 Cell Culture EasyFlask (Nunc, Roskilde, Denmark) at 37 °C in a humidified atmosphere of 5% CO2.
# MTT assays were performed to evaluate the cytotoxic activity of the investigated compounds (1–3) against MCF-10A cells. Asuspension of cells (1 × 10^5 cells/mL) was distributed onto 96-well plates at a volume of 100 μL/well. After attachment, the cells were treated with increased concentrations of the tested compounds in medium containing 2% FBS, and incubated for 24 h. Then, 15 μL of MTT working solution (5 mg/mL in PBS) was added to each well and the plates were incubated for 3 h. Subsequently, 100 μL of 10% SDS solution was added to each well in order to dissolve the formazan formed. After overnight incubation at 37 °C, the absorbance of the obtained solution was measured at λ= 570 nm using a microplate reader (Epoch, BioTek Instruments, Inc., Winooski, VT, USA). At least two independent experiments were performed in triplicate. IC50 values of the tested compounds were calculated using the IC50 online calculator [27].
SMILES,MAF BCRP [1],IC50 [2] [µM],IC50 MCF-7 [2] [µg/mL],IC50 [3] [µM],IC50 MDA-MB-231 [3] [µg/mL],"MAF MDR1 ([4]; MDA-MB-231, 10 µg/mL)","MAF MDR1 ([4]; MDA-MB-231, 20 µg/mL)","cells in G2/M phase ([5]; MCF-7, 20 µg/mL) [%]","cells in S phase ([5]; MCF-7, 20 µg/mL) [%]",IC50 [6],SIMCF-7 (selectivity index) [6],SIMDA-MB-231 (selectivity index) [6],"cells in G2/M phase ([5]; MCF-7, 10 µg/mL) [%]"
O=C(Cc1cccc2ccccc12)NNC(=S)Nc1ccc(/N=N/c2ccccc2)cc1 [Compound 2],15.4,20.9 ± 0.59,9.18 ± 0.26,17.4 ± 0.93,7.64 ± 0.41,13.3,11.1,32.2,40.7,42.7 µg/mL and 97.2 µM,4.65,5.60,–
O=C(NNC(=S)Nc1ccc(/N=N/c2ccccc2)cc1)c1ccccc1[N+](=O)[O-] [Compound 3],7.0,18.2 ± 1.36,7.67 ± 0.57,24.9 ± 1.74,10.47 ± 0.73,–,< 20,–,49.1,40.5 µg/mL and 96.2 µM,5.30,3.86,35.3
